Experimental data published in a melting point compilation (Tetko et al.).

Row | melting point | SMILES
1 | 114 to 116 °C | O=C(Nc1ncccc1O)c1ccc(C2SCCS2)cc1
2 | 93 to 96 °C | NS(=O)(=O)c1cccc(NC(=O)c2ccccc2Cl)c1
3 | 8 to 10 °C | Cc1nccc(CN)n1
4 | 114 to 116 °C | COc1ncccc1C(N)=S
5 | 198 to 200 °C | COc1cccc(C(N)C(=O)O)c1 (centres undefined)
6 | 104 to 106 °C | O=Cc1sc2ccccc2c1Cl
7 | 189 to 191 °C | c1ccc(-c2nnc(-c3ccccc3)[nH]2)cc1
8 | 270 to 272 °C | O=C(O)CNS(=O)(=O)c1cccc2c1N=S=N2
9 | 193 to 195 °C | Nn1c(S)nnc1-c1ccccc1
10 | 189 to 191 °C | O=C(O)C(c1ccccc1F)N1CCOCC1 (centres undefined)
11 | 87 to 89 °C | NCCC(=O)N1CCN(c2ncccn2)CC1
12 | 132 to 135 °C | Sc1nnc(SCc2ccccc2Cl)[nH]1
13 | 188 to 190 °C | Nc1nnc(-c2ccoc2)[nH]1
14 | 89 to 91 °C | CC(C)(O)c1nc2ccccc2s1
15 | 211 to 213 °C | Cc1nc2c(c(C)nn2C)c(C)c1CCC(=O)O
16 | 209 to 211 °C | Cc1nc(-c2ccccn2)[nH]c(=O)c1CC(=O)O
17 | 80 to 82 °C | NC1CCN(c2ccc(Cl)cc2)C1=O (centres undefined)
18 | 54 to 56 °C | Cc1ccnc(Br)c1[N+](=O)[O-]
19 | 203 to 205 °C | CCOc1ccc2nc(-c3ccc(N)cc3)sc2c1
20 | 173 to 175 °C | Nc1ccc(S(=O)(=O)Nc2ccc(F)c(Cl)c2)cc1
21 | 174 to 176 °C | O=C(O)c1cccc(S(=O)(=O)N2CCc3ccccc32)c1
22 | 189 to 191 °C | Cc1cc(C)nc(-n2nc(C(=O)O)cc2C)n1
23 | 156 to 158 °C | N#Cc1c2c(n(-c3ccccc3)c1NC(=O)CCl)CCCC2
24 | 256 to 258 °C | COc1ccc2c(C)cc3nnc(S)n3c2c1

Row | melting point | SMILES
25 | 52 to 54 °C | Cc1ccccc1COc1cccc(CC(=O)O)c1
26 | 66 to 68 °C | N#Cc1cc(Cl)ccc1OCC(F)(F)F
27 | 181 to 183 °C | NC(=S)c1cnn(-c2ccccc2)c1
28 | 175 to 177 °C | COc1ccccc1Nc1ncccc1C(=O)O
29 | 103 to 105 °C | Nc1cc(-c2cccc(F)c2)no1
30 | 67 to 69 °C | CC(Cl)c1nnc(-c2ccc(F)cc2)o1 (centres undefined)
31 | 225 to 227 °C | COc1ccc(-c2cc(C(=O)O)[nH]n2)cc1OC
32 | 130 to 132 °C | O=S(=O)(c1ccc(O)cc1)N1CCCCC1
33 | 158 to 160 °C | N#Cc1ccc(S(=O)(=O)N2CCOCC2)cc1
34 | 146 to 148 °C | CC1C(=O)NCCN1C(=O)c1ccccc1 (centres undefined)
35 | 174 to 176 °C | O=C(O)CNC(=O)c1cccc(O)c1
36 | 75 to 77 °C | O=[N+]([O-])c1cc(Cl)cnc1Br
37 | 187 to 189 °C | CC(=O)Nc1cc(NC(C)=O)cc(C(=O)O)c1
38 | 207 to 209 °C | O=C(O)C1CC(=O)N(c2cccc3ccccc23)C1 (centres undefined)
39 | 222 to 224 °C | O=C(O)C=Cc1nc2ccccc2s1
40 | 44 to 46 °C | Cc1ccc(OC2CCNCC2)cc1
41 | 36 to 38 °C | Cc1cc(S(=O)(=O)Cl)ccc1F
42 | 214 to 216 °C | Cn1c(=O)[nH]c(=O)c2cc(S(=O)(=O)Cl)cnc21
43 | 49 to 51 °C | Cc1cc(N)nn1C
44 | 73 to 75 °C | CCOC(=O)c1ccc(OCC#N)cc1
45 | 146 to 148 °C | N#CCC(=O)c1cc2ccccc2o1
46 | 58 to 60 °C | CCOc1ccc(N)cc1CN1CCCC1
47 | 125 to 130 °C | CCOc1ccc(OCC(=O)O)cc1
48 | 142 to 144 °C | O=C(O)C1CC(=O)N(c2cccc(Br)c2)C1 (centres undefined)

Row | melting point | SMILES
49 | 149 to 151 °C | N#Cc1ccnc(-n2cncn2)c1
50 | 172 to 174 °C | Cc1cc(C(=O)O)c2cnn(C(C)C)c2n1
51 | 155 to 157 °C | CC(=O)c1cccc(-n2cnnn2)c1
52 | 276 to 278 °C | O=C(O)Cn1c(-c2ccccc2Cl)nc2ccccc21
53 | 221 to 223 °C | Nc1ccc2nc3n(c(=O)c2c1)CCC3
54 | 55 to 57 °C | Cc1cccc(-c2[nH]ncc2C=O)c1
55 | 114 to 116 °C | Nc1ccccc1N1CCc2ccccc2C1
56 | 198 to 200 °C | O=C(O)c1nn(-c2ccccc2I)cc1O
57 | 176 to 178 °C | Cc1ccc(NC(=S)NN)cc1C
58 | 79 to 81 °C | Cc1nc(-c2ccccc2F)sc1C(C)O (centres undefined)
59 | 152 to 154 °C | CC(C)(C)c1ccc(Nc2ncccc2C(N)=S)cc1
60 | 185 to 187 °C | COc1ccc(-c2csc(N)n2)cc1F
61 | 87 to 89 °C | NCCn1ncc2ccccc2c1=O
62 | 152 to 154 °C | CNC(=O)c1ccn(-c2ccc(N)cc2)n1
63 | 64 to 66 °C | COCCOc1ccc(Cl)cc1C#N
64 | 237 to 239 °C | NC(=NO)c1ccc(Cn2cnc3ccccc32)cc1
65 | 60 to 62 °C | COC(=O)c1cc(-c2ccccc2)nc2ccccc12
66 | 60 to 62 °C | COC(=O)c1cc(S(N)(=O)=O)cnc1Cl
67 | 275 to 277 °C | Cc1nc2c(C#N)cnn2c(O)c1CC(=O)O
68 | 138 to 140 °C | O=C(O)C1CC(=O)N(CCOc2ccccc2Cl)C1 (centres undefined)
69 | 89 to 91 °C | Cc1ccc(C)c(C(=O)c2cccc(S(C)(=O)=O)c2)c1
70 | 282 to 284 °C | Sc1nc(-c2ccc3c(c2)OCCO3)n[nH]1
71 | 123 to 125 °C | Cc1nc2ccccc2c(N)c1C(C)C
72 | 150 to 152 °C | Cn1c(=O)oc2cc(N)ccc21

The next lines start with the compound.

Row | SMILES | melting point
73 | O=C(O)c1n[nH]cc1[N+](=O)[O-] | 223 to 225 °C
74 | Cc1cc(S(=O)(=O)Cl)cc(C)c1F | 88 to 90 °C
75 | COC(=O)C1CNC(=O)C1 (centres undefined) | 58 to 60 °C
76 | CCn1c(=O)cc(Cl)[nH]c1=O | 210 to 212 °C
77 | O=C1Nc2ccc(Br)cc2C12CCCC2 | 201 to 203 °C
78 | CCOC(=O)c1sc2nc(CCl)nc(Cl)c2c1C | 168 to 170 °C
79 | Cc1cc(C)cc(C(=O)N2CCCC(C(=O)O)C2)c1 (centres undefined) | 188 to 190 °C
80 | O=C(O)/C=C/c1ccc(N2CCCS2(=O)=O)cc1 | 252 to 254 °C
81 | CNS(=O)(=O)c1ccc(S(N)(=O)=O)cc1 | 154 to 156 °C
82 | Nc1ccc2c(c1)OC1(CCCCC1)O2 | 65 to 67 °C
83 | Cc1ccc(NC(=O)NN)c(Cl)c1 | 132 to 134 °C
84 | Cc1cnn([N+](=O)[O-])c1 | 41 to 43 °C
85 | O=C1CC(C(=O)O)c2ccc(F)cc2N1 (centres undefined) | 214 to 216 °C
86 | CN(CC(=O)Nc1ccc(F)cc1)C(=O)CCl | 159 to 161 °C
87 | CC(C)N1C(=O)CC(C(=O)O)C1c1ccc(Cl)c(F)c1 (centres undefined) | 163 to 165 °C
88 | COC(=O)c1c(C)[nH]c(C(=O)O)c1C | 206 to 208 °C
89 | CCn1nc(C)c(C(=O)O)c1C(F)(F)Cl | 111 to 113 °C
90 | COc1ccc([N+](=O)[O-])cc1NC(=O)CCCl | 159 to 161 °C
91 | Nc1cc(F)c(F)cc1N | 126 to 130 °C
92 | CCN(CC)S(=O)(=O)CC(=O)O | 59 to 61 °C
93 | Cc1ccc2c(CCl)cc(=O)oc2c1C | 174 to 176 °C
94 | COc1cc(C(=O)O)ccc1OCCC(C)C | 92 to 94 °C
95 | COC(=O)c1ccc(Cl)c(S(=O)(=O)Cl)c1 | 103 to 105 °C
96 | Cc1ccc(S(=O)(=O)N2CCCCC2)cc1N | 106 to 110 °C

Row | SMILES | melting point
97 | O=C(Cc1ccccc1Cl)NCCCO | 77 to 79 °C
98 | NC(=S)N1CCSCC1 | 157 to 159 °C
99 | COc1ccc(C2CNC(=O)C2)cc1 (centres undefined) | 126 to 128 °C
100 | O=C1CCOc2cc3c(cc21)OCO3 | 96 to 98 °C
101 | Cn1cc(C(N)=O)c(C(F)F)n1 | 214 to 216 °C
102 | COc1ccc(C=O)cc1OC(F)F | 34 to 38 °C
103 | CCOC(=O)c1c(C(C)(C)C)csc1N | 56 to 58 °C
104 | CC(Cl)C(=O)NCC(F)(F)F (centres undefined) | 42 to 44 °C
105 | CC1CN(S(=O)(=O)c2ccc(C(=O)O)cc2)CC(C)O1 (centres undefined) | 268 to 270 °C
106 | O=C(O)C1CCCN1C(=O)C1CCCC1 (centres undefined) | 125 to 127 °C
107 | Cc1ccc(S(C)(=O)=O)cc1C(=O)O | 204 to 206 °C
108 | CC(C)(C)OC(=O)N1CCN(CCN)CC1 | 34 to 36 °C
109 | CC(C)(C)OC(=O)N1CCC(I)CC1 | 44 to 46 °C
110 | CN(C)c1ccc(C#N)c(F)c1 | 56 to 58 °C
111 | CC(=O)c1ccc(S(=O)(=O)Nc2ccc(C(=O)O)cc2)cc1 | 152 to 154 °C
112 | NC(=O)C1CCOC1 (centres undefined) | 109 to 111 °C
113 | O=C(O)CCNC(=O)c1ccoc1 | 154 to 156 °C
114 | CC(C)C(NC(=O)Cc1ccccc1)C(=O)O (centres undefined) | 110 to 112 °C
115 | O=C(O)c1cccc(S(=O)(=O)NC2CCOC2=O)c1 (centres undefined) | 220 to 222 °C
116 | CC1CCCCC1NC(=O)CCl (centres undefined) | 100 to 102 °C
117 | N#Cc1cnc2ccccc2c1N1CCNCC1 | 160 to 162 °C
118 | O=C(O)C(=O)Cc1cccs1 | 163 to 165 °C
119 | CC(C)(C)c1ncsc1C(=O)O | 185 to 187 °C
120 | CC(C)C(Br)C(=O)N1CCOCC1 (centres undefined) | 71 to 73 °C

Row | SMILES | melting point
121 | CC1CCCC(NC(=O)OC(C)(C)C)(C(=O)O)C1 (centres undefined) | 149 to 151 °C
122 | O=C(CCCl)Nc1ccc(Cl)cc1 | 124 to 126 °C
123 | O=C(O)c1c(F)cc(OC(F)F)cc1F | 106 to 108 °C
124 | O=C(O)C1CCc2nnc(C(F)F)n2C1 (centres undefined) | 215 to 217 °C
125 | O=C(O)CC(Br)C(=O)c1ccc(F)cc1 (centres undefined) | 128 to 131 °C
126 | Cc1c(C(=O)O)sc2nc3n(c(=O)c12)CCCCC3 | 253 to 255 °C
127 | O=C(O)CCCCc1ccc(O)c(O)c1 | 93 to 95 °C
128 | COCCOc1cc2c(cc1C=O)OCO2 | 84 to 86 °C
129 | CCc1nc(C(=O)O)co1 | 101 to 103 °C
130 | CNC(C)c1sc(-c2ccc(C)cc2)nc1C (centres undefined) | 77 to 79 °C
131 | CC(=O)c1ccc(C)c(S(N)(=O)=O)c1 | 144 to 146 °C
132 | Cc1cc(C)c(CCNC(=O)CCl)c(C)c1 | 143 to 145 °C
133 | CCc1ccc(C(=O)N2CCC(C(=O)O)CC2)o1 | 112 to 114 °C
134 | Cc1cc(C)c(C(=O)CCl)c(C)c1 | 68 to 70 °C
135 | Cc1cc(N)ccc1NC(=O)CN1CCCC1=O | 209 to 211 °C
136 | O=C1CSC(NC2CCCC2)=N1 | 110 to 112 °C
137 | O=C(O)CCCc1ccc2[nH]c(=O)[nH]c2c1 | 244 to 246 °C
138 | CC(C)(CO)NCCO | 73 to 75 °C
139 | Cc1ccc(NS(=O)(=O)c2ccc(C(=O)O)cc2)cc1 | 285 to 287 °C
140 | CC(C)c1nc(CC(=O)O)cs1 | 87 to 89 °C
141 | Nc1cc(C(=O)O)cc(Cl)n1 | 289 to 291 °C
142 | CC1(C(=O)O)COC(=O)OC1 | 159 to 161 °C
143 | CC(C)CC(NS(C)(=O)=O)C(=O)O (centres undefined) | 67 to 69 °C
144 | NNC(=O)C1Cc2ccccc2O1 (centres undefined) | 150 to 152 °C
